Tests used:
patients with migraine = assay: Study 201 (BHV3000-201) open label long-term safety study, rimegepant 75 mg oral tablet, acute treatment of migraine; type: in vivo, human; settings: for >= 20.0% decrease in migraines (headache days) per month, subjects n (%) / >= 25.0% decrease in migraines (headache days) per month, subjects n (%) / >= 30.0% decrease in migraines (headache days) per month, subjects n (%) / >= 35.0% decrease in migraines (headache days) per month, subjects n (%) / >= 40.0% decrease in migraines (headache days) per month, subjects n (%) / >= 45.0% decrease in migraines (headache days) per month, subjects n (%) / >= 50.0% decrease in migraines (headache days) per month, subjects n (%): Study 201, Overall, n 1731
Procedure: Clinical Trial-BHV3000-201: Open Label Safety Study in Acute Treatment of Migraine (ClinicalTrials.gov Identifier: NCT 03266588) A phase 2/3 clinical study is conducted with about 2000 participants, as follows. The purpose of this study is to evaluate safety and tolerability of BHV3000 (rimegepant). • Study Type: Interventional (Clinical Trial) • Estimated Enrollment: 2000 participants • Intervention Model: Single Group Assignment • Masking: None (Open Label) • Primary Purpose: Treatment • Official Title: A Multicenter, Open Label Long-Term Safety Study of BHV3000 in the Acute Treatment of Migraine • Actual Study Start Date: Aug. 30, 2017 • Estimated Primary Completion Date: July 2019 • Estimated Study Completion Date: July 2019 [table] 1. To assess the safety and tolerability of rimegepant (BHV-3000) by measuring the frequency and severity of adverse events and discontinuations due to adverse events [Time Frame: 52 weeks] Number of subjects with treatment-emergent adverse events as assessed through laboratory tests, ECGs, physical exam findings (safety and tolerability) 1. ALT or […] with total bilirubin >2×ULN [Time Frame: 52 weeks] elevated liver function tests 2. hepatic related adverse events and hepatic related adverse events that lead to discontinuation [Time Frame: 52 weeks] adverse events related to liver

[1] = test system: subjects with Acute Migraines; assay: Study 301 (BHV3000-301) Phase 3 placebo-controlled trial, rimegepant 75 mg tablet, acute treatment of migraine: efficacy and safety; type: in vivo, human
Procedure: Clinical Trial—BHV3000-301: Phase 3: Double-Blind, Randomized, Placebo-Controlled, Safety and Efficacy Trial of BHV-3000 (Rimegepant) for the Acute Treatment of Migraine (ClinicalTrials.gov Identifier: NCT03235479). A phase 3 clinical study was conducted with 1490 participants, as follows. The purpose of this study was to compare the efficacy of BHV-3000 (rimegepant) versus placebo in subjects with Acute Migraines • Study Type: Interventional (Clinical Trial) • Actual Enrollment: 1490 participants • Allocation: Randomized • Intervention Model: Parallel Assignment • Intervention Model Description: Double-blind to Sponsor, Investigator and Subject Randomized Controlled Trial • Masking: Triple (Participant, Care Provider, Investigator) • Masking Description: Double-blind to Sponsor, Investigator and Subject • Primary Purpose: Treatment • Official Title: BHV3000-301: Phase 3: Double-Blind, Randomized, Placebo-Controlled, Safety and Efficacy Trial of BHV-3000 (Rimegepant) for the Acute Treatment of Migraine [table] • 1. Pain freedom of rimegepant (75 mg tablet) compared with placebo in the acute treatment of migraine will be measured using the number of evaluable subjects that report no pain at 2 hours post-dose. [Time Frame: Two hours post dose] • Pain will be measured on a 4 point Likert scale (0=none, 1=mild, 2=moderate, 3=severe) • 2. Freedom from the most bothersome symptom (MBS) of rimegepant (75 mg tablet) compared with placebo will be measured using the number of evaluable subjects that report the absence of their MBS at 2 hours post-dose. [Time Frame: Two hours post dose] • The MBS (nausea, phonophobia or photophobia) will measured using a binary scale (0=absent, 1=present). • 1. […] [Time Frame: 2 hours −24 hours post-dose] • Sustained Pain Freedom as measured by a 4 point numeric rating scale (None, Mild, Moderate, Severe) • 2. The difference between rimegepant (75 mg tablet) compared to placebo by tabulating the absence of photophobia at 2 hours post-dose in the subset of subjects that reported the presence of photophobia at headache baseline. [Time Frame: 2 hours post-dose] • Photophobia • 3. To evaluate rimegepant (75 mg tablet) compared to placebo by tabulating the number of subjects that report the absence of phonophobia at 2 hours post-dose in the subset of subjects that reported the presence of phonophobia at headache baseline. [Time Frame: 2 hours post-dose] • Phonophobia • 4. To measure the difference between rimegepant (75 mg tablet) compared to placebo on Pain Relief, at 2 hours post-dose, for those that report a pain level of moderate or severe at baseline and then report a pain level of none or mild. [Time Frame: 2 hours post-dose] • Pain Relief as measured by a 4 point numeric rating scale (None, Mild, Moderate, Severe) • 5. Freedom from Nausea by tabulating the number of subjects that report the absence of nausea at 2 hours post-dose in the subset of subjects that reported the presence of nausea at headache baseline. [Time Frame: 2 hours post-dose] • Freedom from Nausea • 6. The difference between rimegepant (75 mg tablet) compared to placebo on the probability of requiring rescue medication using the number of subjects that take rescue medication within […] administration of study medication (BHV3000 or placebo). [Time Frame: up to 24 hours post-dose] • Requiring Rescue Medication • 7. […] [Time Frame: 2 hours-24 hours post-dose] • Sustained Pain Freedom • 8. […] [Time Frame: 2 hours-24 hours post-dose] • Sustained Pain Relief as measured by a 4 point numeric rating scale (None, Mild, Moderate, Severe) • 9. […] [Time Frame: 2 hours-48 hours post-dose] • Sustained Pain Relief as measured by a 4 point numeric rating scale (None, Mild, Moderate, Severe) • 10. To measure the difference between rimegepant (75 mg tablet) relative to placebo on the proportion of subjects able to function normally, at 2 hours, using the number of subjects that self-report as “normal” on the functional disability scale. […]

## N[C@@H]1c2cccnc2[C@H](OC(=O)N2CCC(n3c(=O)[nH]c4ncccc43)CC2)CC[C@H]1c1cccc(F)c1F [Rimegepant, [(5S,6S,9R)-5-amino-6-(2,3-difluorophenyl)-6,7,8,9-tetrahydro-5H-cyclohepta[b]pyridin-9-yl] 4-(2-oxo-3H-imidazo[4,5-b]pyridin-1-yl)piperidine-1-carboxylate]
Patients with migraine
  >= 20.0% decrease in migraines (headache days) per month, subjects n (%): 683 (39.5%) n (%)
  >= 25.0% decrease in migraines (headache days) per month, subjects n (%): 602 (34.8%) n (%)
  >= 30.0% decrease in migraines (headache days) per month, subjects n (%): 523 (30.2%) n (%)
  >= 35.0% decrease in migraines (headache days) per month, subjects n (%): 442 (25.5%) n (%)
  >= 40.0% decrease in migraines (headache days) per month, subjects n (%): 362 (20.9%) n (%)
  >= 45.0% decrease in migraines (headache days) per month, subjects n (%): 287 (16.6%) n (%)
  >= 50.0% decrease in migraines (headache days) per month, subjects n (%): 226 (13.1%) n (%)
Patients with migraine; listed as BHV-3000
  >= 20.0% decrease in migraines (headache days) per month, subjects n (%): 683 (39.5) n (%)
  >= 25.0% decrease in migraines (headache days) per month, subjects n (%): 602 (34.8) n (%)
  >= 30.0% decrease in migraines (headache days) per month, subjects n (%): 523 (30.2) n (%)
  >= 35.0% decrease in migraines (headache days) per month, subjects n (%): 442 (25.5) n (%)
  >= 40.0% decrease in migraines (headache days) per month, subjects n (%): 362 (20.9) n (%)
  >= 45.0% decrease in migraines (headache days) per month, subjects n (%): 287 (16.6) n (%)
  >= 50.0% decrease in migraines (headache days) per month, subjects n (%): 226 (13.1) n (%)
Patients with migraine; Study 201 interim analysis, 75 mg up to once daily, long-term
  Incidence of serum ALT or AST >3xULN: 1.0%
Patients with migraine; Study 201 interim analysis, including near-daily dosing subset
  Liver safety signal: no liver safety signal detected
Patients with migraine; Study 201 interim analysis, independent liver panel
  Liver cases assessed as probably related to study drug: no liver cases
[1]
  SAEs related to the study drug: No SAE was determined to be related to the study drug
  Transaminase level >5 times ULN, subjects: no subject
[1]; 4/546
  Adverse event dizziness, incidence: 0.7%
[1]; 5/546
  Adverse event nausea, incidence: 0.9%
[1]; 11/546
  Serum ALT or AST levels greater than ULN, subjects: 2.0%
[1]; P<0.0001
  Proportion of patients achieving normal function at 2 hours (functional disability) versus placebo: greater proportion
[1]; n=2, both not dosed before onset
  Serious AEs (SAEs), subjects: 0.4%
[1]; one subject
  Transaminase level >3 times ULN, subjects: 0.2%

Reference: patent publication US20220168295A1, “RIMEGEPANT FOR CGRP RELATED DISORDERS” (Biohaven Pharmaceutical Ireland DAC, priority 2018, published 2022)
